In patent publication US20240190880A1 (THE REGENTS OF THE UNIVERSITY OF MICHIGAN, priority 2021, published 2024):

Molecular target: T1, ER (Homo sapiens, UniProt P03372)
T1 construct: host or cells: T47D and MCF7 human breast cancer cells
T1 sequence (P03372 1-595): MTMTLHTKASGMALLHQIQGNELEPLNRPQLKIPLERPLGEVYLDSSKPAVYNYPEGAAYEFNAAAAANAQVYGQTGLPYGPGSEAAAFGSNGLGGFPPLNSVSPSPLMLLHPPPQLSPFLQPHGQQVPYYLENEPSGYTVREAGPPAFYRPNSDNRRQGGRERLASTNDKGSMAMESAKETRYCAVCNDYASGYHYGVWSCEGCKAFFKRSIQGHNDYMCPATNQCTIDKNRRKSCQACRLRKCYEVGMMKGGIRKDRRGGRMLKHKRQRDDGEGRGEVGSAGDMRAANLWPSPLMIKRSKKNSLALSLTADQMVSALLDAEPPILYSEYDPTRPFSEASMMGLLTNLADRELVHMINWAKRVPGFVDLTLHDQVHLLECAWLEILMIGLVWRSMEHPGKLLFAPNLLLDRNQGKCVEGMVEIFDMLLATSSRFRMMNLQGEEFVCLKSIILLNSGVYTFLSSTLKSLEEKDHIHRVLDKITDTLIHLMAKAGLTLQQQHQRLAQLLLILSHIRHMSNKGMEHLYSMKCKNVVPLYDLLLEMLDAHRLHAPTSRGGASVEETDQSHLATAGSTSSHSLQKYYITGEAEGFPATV
Assay: ER degradation activity, in-cell western blot analysis in T47D cells
Type: cell-based
Conditions: 16 hours, Table A does not say which cell line (T47D or MCF7), read-out: Potency (DC50)
Experimental: ER degradation activity was evaluated in the human breast cancer cell line T47D and MCF7 purchased from the American Type Culture Collection (ATCC), Manassas, VA, and maintained and cultured in Dulbecco's Modified Eagle's medium (DMEM) containing 10% fetal bovine serum, 1 unit/ml of penicillin and 1 μg/ml of streptomycin.
The protocol for the in-cell western blot analysis: a. seed cells in black-sided/clear bottom 96- or 384-well plates at 40,000 or 10,000 cells/well, overnight; b. add diluted compounds (final 0.5% DMSO), 16 hours. […] RT 2 h, gentle shaking. Negative control: cells plus secondary antibodies (no primary antibodies); e. wash ×4 with PBS+0.05-0.1% Tween 20, gentel shaking; f. anti-rabbit-680 and anti-mouse-800 (both 1:1000 in LiCor block+0.05% Tween20, RT 1 h, gentle shaking, no light. LI-COR: 0.2% to reduce background; g. wash×4 with PBS+0.05% Tween 20, gental shaking; h. add 100 μL or 25 μL of PBS to each well and read on CLX plate reader. The relative ER percentage in treated cells were obtained by comparing the values of treated wells to those in untreated and DMSO-treated wells as 100%.

SMILES | DC50 [nM]
C[C@@H]1Cc2c([nH]c3ccccc23)[C@@H](c2c(F)cc(N3CC4(CCN4CC(=O)N4Cc5cc6c(cc5C4)C(=O)N(C4CCC(=O)NC4=O)C6=O)C3)cc2F)N1CC(F)F (stereo partly drawn) [E 60, 6-(2-(6-(4-((1R,3R)-2-(2,2-difluoroethyl)-3-methyl-2,3,4,9-tetrahydro-1H-pyrido[3,4-b]indol-1-yl)-3,5-difluorophenyl)-1,6-diazaspiro[3.3]heptan-1-yl)acetyl)-2-(2,6-dioxopiperidin-3-yl)-6,7-dihydropyrrolo[3,4-f]isoindole-1,3(2H,5H)-dione] | > 100
CCC(=C(c1ccc(O)cc1)c1ccc(N2CCC3(CCN(C(=O)CN4Cc5cc6c(cc5C4)C(=O)N(C4CCC(=O)NC4=O)C6=O)CC3)CC2)cc1)c1ccccc1 (stereo not drawn) [E 188, 2-(2,6-dioxopiperidin-3-yl)-6-(2-(9-(4-(1-(4-hydroxyphenyl)-2-phenylbut-1-en-1-yl)phenyl)-3,9-diazaspiro[5.5]undecan-3-yl)-2-oxoethyl)-6,7-dihydropyrrolo[3,4-f]isoindole-1,3(2H,5H)-dione] | 10 to 100
O=C1CCC(N2C(=O)c3cc4c(cc3C2=O)CN(CCN2CC3(CCN(c5ccc([C@@H]6c7ccc(O)cc7CC[C@@H]6c6ccccc6)cc5)CC3)C2)C4)C(=O)N1 (mixture of isomers) [E 267, rac-2-(2,6-dioxopiperidin-3-yl)-6-(2-(7-(4-((1R,2S)-6-hydroxy-2-phenyl-1,2,3,4-tetrahydronaphthalen-1-yl)phenyl)-2,7-diazaspiro[3.5]nonan-2-yl)ethyl)-6,7-dihydropyrrolo[3,4-f]isoindole-1,3(2H,5H)-dione] | 10 to 100
O=C1CCC(N2C(=O)c3cc4c(cc3C2=O)CN(CC(=O)N2CC3(CCN(c5ccc([C@@H]6c7ccc(O)cc7CC[C@@H]6c6ccccc6)cc5F)CC3)C2)C4)C(=O)N1 (mixture of isomers) [E 173, Rac-2-(2,6-dioxopiperidin-3-yl)-6-(2-(7-(2-fluoro-4-((1R,2S)-6-hydroxy-2-phenyl-1,2,3,4-tetrahydronaphthalen-1-yl)phenyl)-2,7-diazaspiro[3.5]nonan-2-yl)-2-oxoethyl)-6,7-dihydropyrrolo[3,4-f]isoindole-1,3(2H,5H)-dione] | > 100
C[C@@H]1Cc2c([nH]c3ccccc23)[C@@H](c2c(F)cc(N3CCC(CN4CCC(C(=O)N5Cc6cc7c(cc6C5)C(=O)N(C5CCC(=O)NC5=O)C7=O)CC4)CC3)cc2F)N1CC(F)F (stereo partly drawn) [E 238, 6-(1-((1-(4-((1R,3R)-2-(2,2-difluoroethyl)-3-methyl-2,3,4,9-tetrahydro-1H-pyrido[3,4-b]indol-1-yl)-3,5-difluorophenyl)piperidin-4-yl)methyl)piperidine-4-carbonyl)-2-(2,6-dioxopiperidin-3-yl)-6,7-dihydropyrrolo[3,4-f]isoindole-1,3(2H,5H)-dione] | > 100
C[C@@H]1Cc2c([nH]c3ccccc23)[C@@H](c2c(F)cc(N3CCC(N4CCC(CN5Cc6cc7c(cc6C5)C(=O)N(C5CCC(=O)NC5=O)C7)CC4)CC3)cc2F)N1CC(F)F (stereo partly drawn) [E 86, 3-(6-((1′-(4-((1R,3R)-2-(2,2-difluoroethyl)-3-methyl-2,3,4,9-tetrahydro-1H-pyrido[3,4-b]indol-1-yl)-3,5-difluorophenyl)-[1,4′-bipiperidin]-4-yl)methyl)-1-oxo-3,5,6,7-tetrahydropyrrolo[3,4-f]isoindol-2(1H)-yl)piperidine-2,6-dione] | 10 to 100
C[C@@H]1Cc2c([nH]c3ccccc23)[C@@H](c2ccc(N3CCC4(CCN(CC(=O)N5Cc6cc7c(cc6C5)C(=O)N(C5CCC(=O)NC5=O)C7=O)CC4)CC3)cn2)N1CC(F)F (stereo partly drawn) [E 292, 6-(2-(9-(6-((1S,3R)-2-(2,2-difluoroethyl)-3-methyl-2,3,4,9-tetrahydro-1H-pyrido[3,4-b]indol-1-yl)pyridin-3-yl)-3,9-diazaspiro[5.5]undecan-3-yl)acetyl)-2-(2,6-dioxopiperidin-3-yl)-6,7-dihydropyrrolo[3,4-f]isoindole-1,3(2H,5H)-dione] | > 100
O=C1CCC(N2C(=O)c3cc4c(cc3C2=O)CN([C@H]2CC[C@H](C(=O)N3CC(Nc5ccc([C@H]6c7ccc(O)cc7CC[C@H]6c6ccccc6)cc5)C3)CC2)C4)C(=O)N1 (stereo partly drawn) [E 387, 2-(2,6-dioxopiperidin-3-yl)-6-((1S,4r)-4-(3-((4-((1S,2R)-6-hydroxy-2-phenyl-1,2,3,4-tetrahydronaphthalen-1-yl)phenyl)amino)azetidine-1-carbonyl)cyclohexyl)-6,7-dihydropyrrolo[3,4-f]isoindole-1,3(2H,5H)-dione] | < 10
O=C1CCC(N2C(=O)c3cc4c(cc3C2=O)CN(CC2CCC(N3CCN(c5ccc([C@@H]6c7ccc(O)cc7CC[C@@H]6c6ccccc6)cc5)CC3)CC2)C4)C(=O)N1 (stereo partly drawn) [E 299, 2-(2,6-dioxopiperidin-3-yl)-6-((4-(4-(4-((1R,2S)-6-hydroxy-2-phenyl-1,2,3,4-tetrahydronaphthalen-1-yl)phenyl)piperazin-1-yl)cyclohexyl)methyl)-6,7-dihydropyrrolo[3,4-f]isoindole-1,3(2H,5H)-dione] | 10 to 100
C[C@@H]1Cc2c([nH]c3ccccc23)[C@@H](c2c(F)cc(N3CCC(C(=O)N4CCC(N5Cc6cc7c(cc6C5)C(=O)N(C5CCC(=O)NC5=O)C7=O)CC4)CC3)cc2F)N1CC(F)F (stereo partly drawn) [E 114, 6-(1-(1-(4-((1R,3R)-2-(2,2-difluoroethyl)-3-methyl-2,3,4,9-tetrahydro-1H-pyrido[3,4-b]indol-1-yl)-3,5-difluorophenyl)piperidine-4-carbonyl)piperidin-4-yl)-2-(2,6-dioxopiperidin-3-yl)-6,7-dihydropyrrolo[3,4-f]isoindole-1,3(2H,5H)-dione] | < 10
O=C1CCC(N2C(=O)c3cc4c(cc3C2=O)CN(C(=O)C2CCN(CC3CCN(c5ccc([C@@H]6c7ccc(O)cc7CC[C@@H]6c6ccccc6)cc5)CC3)CC2)C4)C(=O)N1 (stereo partly drawn) [E 205, 2-(2,6-dioxopiperidin-3-yl)-6-(1-((1-(4-((1R,2S)-6-hydroxy-2-phenyl-1,2,3,4-tetrahydronaphthalen-1-yl)phenyl)piperidin-4-yl)methyl)piperidine-4-carbonyl)-6,7-dihydropyrrolo[3,4-f]isoindole-1,3(2H,5H)-dione] | > 100
C[C@@H]1Cc2c([nH]c3ccccc23)[C@@H](c2c(F)cc(N3CCC(C(=O)N4CCC(N5Cc6cc7c(cc6C5)C(=O)N(C5CCC(=O)NC5=O)C7=O)CC4)CC3)cc2F)N1CC(F)(F)F (stereo partly drawn) [E 228, 6-(1-(1-(3,5-difluoro-4-((1R,3R)-3-methyl-2-(2,2,2-trifluoroethyl)-2,3,4,9-tetrahydro-1H-pyrido[3,4-b]indol-1-yl)phenyl)piperidine-4-carbonyl)piperidin-4-yl)-2-(2,6-dioxopiperidin-3-yl)-6,7-dihydropyrrolo[3,4-f]isoindole-1,3(2H,5H)-dione] | 10 to 100
C[C@H]1CC2(CCN(CC(=O)N3Cc4cc5c(cc4C3)C(=O)N(C3CCC(=O)NC3=O)C5=O)CC2)CN1c1ccc([C@@H]2c3ccc(O)cc3CC[C@@H]2c2ccccc2)cc1 (mixture of isomers) [E 144, Rac-2-(2,6-dioxopiperidin-3-yl)-6-(2-((S)-2-(4-((1R,2S)-6-hydroxy-2-phenyl-1,2,3,4-tetrahydronaphthalen-1-yl)phenyl)-3-methyl-2,8-diazaspiro[4.5]decan-8-yl)acetyl)-6,7-dihydropyrrolo[3,4-f]isoindole-1,3(2H,5H)-dione] | > 100
C[C@@H]1Cc2c([nH]c3ccccc23)[C@@H](c2c(F)cc(N3CCCC4(CN(C(=O)CN5Cc6cc7c(cc6C5)C(=O)N(C5CCC(=O)NC5=O)C7)C4)C3)cc2F)N1CC(F)F (stereo partly drawn) [E 70, 3-(6-(2-(6-(4-((1R,3R)-2-(2,2-difluoroethyl)-3-methyl-2,3,4,9-tetrahydro-1H-pyrido[3,4-b]indol-1-yl)-3,5-difluorophenyl)-2,6-diazaspiro[3.5]nonan-2-yl)-2-oxoethyl)-1-oxo-3,5,6,7-tetrahydropyrrolo[3,4-f]isoindol-2(1H)-yl)piperidine-2,6-dione] | 10 to 100
O=C1CCC(N2C(=O)c3cc4c(cc3C2=O)CN(CC(=O)N2CCC(C(=O)N3CC(Oc5ccc([C@@H]6c7ccc(O)cc7CC[C@@H]6c6ccccc6)cc5)C3)CC2)C4)C(=O)N1 (stereo partly drawn) [E 376, 2-(2,6-dioxopiperidin-3-yl)-6-(2-(4-(3-(4-((1R,2S)-6-hydroxy-2-phenyl-1,2,3,4-tetrahydronaphthalen-1-yl)phenoxy)azetidine-1-carbonyl)piperidin-1-yl)-2-oxoethyl)-6,7-dihydropyrrolo[3,4-f]isoindole-1,3(2H,5H)-dione] | > 100
